Laboratory results as given in PubChem BioAssay AID551 (University of Pittsburgh Molecular Library Screening Center, 2006).
Calls of active or inactive are those of the source. No rule for the calls is given here.

Target: Dual specificity protein phosphatase 1 (Homo sapiens) (UniProt P28562)
Test: concentration-response of DUSP1 blockers – biochemical, in vitro, confirmation, dose response (AID 551)
Details: recombinant MKP-1 phosphatase, fluorescence substrate

Sequence of Dual specificity protein phosphatase 1 (Homo sapiens) (P28562 whole entry, looked up): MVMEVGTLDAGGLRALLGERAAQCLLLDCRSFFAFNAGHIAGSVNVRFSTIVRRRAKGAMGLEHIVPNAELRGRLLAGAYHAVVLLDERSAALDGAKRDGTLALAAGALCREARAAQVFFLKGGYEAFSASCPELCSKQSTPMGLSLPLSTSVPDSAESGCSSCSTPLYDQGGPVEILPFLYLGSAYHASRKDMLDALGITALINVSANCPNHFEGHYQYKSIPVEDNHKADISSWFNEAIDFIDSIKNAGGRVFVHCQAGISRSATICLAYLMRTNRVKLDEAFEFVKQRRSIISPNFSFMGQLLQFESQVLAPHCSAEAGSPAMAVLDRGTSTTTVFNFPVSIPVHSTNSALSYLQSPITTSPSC

SMILES | IC50
O=C1c2ccccc2-c2onc3ccc(NCCCn4ccnc4)c1c23 | 27.8 µM
O=C1C(C2=C(O)c3ccccc3C2=O)=Nc2ccccc21 | > 50 µM (inactive)
COC(=O)C1=C(C)NC2=C(C(=O)c3ccccc32)C1c1ccc(-c2ccc(C(=O)O)cc2)o1 (centres undefined) | > 50 µM (inactive)
CCOC(=O)c1ccc(NC2c3ncccc3C(=O)N2Cc2ccc(F)cc2)cc1 (centres undefined) | > 50 µM (inactive)

The next lines start with the values.

IC50 | SMILES
> 50 µM (inactive) | O=C1c2cccnc2C(Nc2ccc(S(=O)(=O)N3CCCCCC3)cc2)N1Cc1ccccc1 (centres undefined)
> 50 µM (inactive) | Oc1ccc2ccccc2c1C=NC12CN3CCN(CN(C3)C1)C2
> 50 µM (inactive) | CCSCCOC(=O)C1=C(C)NC2=C(C(=O)CCC2)C1c1coc2ccccc2c1=O (centres undefined)
50 µM | Cc1cc(C)n2c(SCC(=O)N3CCN(S(=O)(=O)c4ccc(Cl)cc4)CC3)nnc2n1
> 50 µM (inactive) | N#C/C(=C(/O)CSc1nnc(Cc2cccs2)n1C1CCCCC1)c1nc2ccccc2[nH]1
